Activity calls are given as the source filed them. The calls are words filed in the database; no cut-off is given here.
Experiments:
[1] = molecular target: T1, Metabotropic glutamate receptor 3 (Homo sapiens, UniProt Q14832); experiment: Agonist activity at mGlu3 receptor (unknown origin); type: functional
[2] = Protein binding in rat brain assessed as unbound fraction measured after 6 hrs by LC-MS/MS based equilibrium dialysis method; type: ADME, tissue-based
[3] = molecular target: T2, Metabotropic glutamate receptor 4 (Homo sapiens, UniProt Q14833); experiment: Antagonist activity at human mGlu4 expressed in CHO cells co-expressing Gqi5 assessed as reduction in L-AP4-induced intracellular calcium flux pretreated for 142 secs followed by glutamate addition and subsequent stimulation of L-AP4 for 40 secs by Fluo-4 AM dye based fluorescence assay; type: functional, cell-based
T2 sequence (Q14833 whole entry): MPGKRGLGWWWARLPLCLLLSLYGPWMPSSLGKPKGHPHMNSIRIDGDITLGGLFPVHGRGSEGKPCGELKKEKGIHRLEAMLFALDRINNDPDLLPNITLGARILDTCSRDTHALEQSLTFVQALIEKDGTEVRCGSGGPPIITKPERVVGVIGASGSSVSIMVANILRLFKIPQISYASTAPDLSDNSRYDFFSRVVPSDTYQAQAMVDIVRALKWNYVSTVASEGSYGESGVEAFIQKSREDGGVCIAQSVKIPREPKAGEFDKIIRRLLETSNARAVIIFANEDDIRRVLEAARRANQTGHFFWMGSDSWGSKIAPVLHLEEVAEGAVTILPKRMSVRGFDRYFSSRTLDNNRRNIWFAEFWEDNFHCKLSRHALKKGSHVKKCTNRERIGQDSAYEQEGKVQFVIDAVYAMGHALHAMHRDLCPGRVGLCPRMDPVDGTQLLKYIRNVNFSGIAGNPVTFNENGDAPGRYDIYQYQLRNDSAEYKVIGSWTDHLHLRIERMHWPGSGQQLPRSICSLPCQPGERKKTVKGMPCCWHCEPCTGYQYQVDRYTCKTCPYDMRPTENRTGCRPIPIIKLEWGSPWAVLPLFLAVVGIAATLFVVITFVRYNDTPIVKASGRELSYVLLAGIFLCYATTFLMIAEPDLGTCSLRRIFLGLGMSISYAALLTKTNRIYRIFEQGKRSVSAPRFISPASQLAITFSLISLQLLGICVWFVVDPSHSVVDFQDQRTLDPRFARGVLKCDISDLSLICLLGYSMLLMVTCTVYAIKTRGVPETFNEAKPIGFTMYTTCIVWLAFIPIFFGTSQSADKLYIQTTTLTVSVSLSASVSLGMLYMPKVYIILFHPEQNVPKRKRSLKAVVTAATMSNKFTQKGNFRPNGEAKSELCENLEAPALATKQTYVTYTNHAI

[4] = molecular target: T1, Metabotropic glutamate receptor 3; experiment: Antagonist activity at mGlu3 receptor (unknown origin); type: functional
[5] = Unbound drug level in C57/Bl6 mouse brain assessed as unbound fraction at 10 mg/kg, ip by LC-MS/MS analysis; type: ADME, organism-based; conditions: in vivo
[6] = molecular target: T3, Metabotropic glutamate receptor 5 (Homo sapiens, UniProt P41594); experiment: Antagonist activity at mGlu5 receptor (unknown origin); type: functional
[7] = Oral bioavailability in cannulated Sprague-Dawley rat; type: ADME, organism-based; conditions: in vivo
[8] = Protein binding in rat plasma assessed as unbound fraction measured after 4 hrs by LC-MS/MS based equilibrium dialysis method; type: ADME, cell-free
[9] = molecular target: T4, Metabotropic glutamate receptor 6 (Homo sapiens, UniProt O15303); experiment: Antagonist activity at mGlu6 receptor (unknown origin); type: functional
[10] = molecular target: T2, Metabotropic glutamate receptor 4; experiment: Agonist activity at human mGlu4 expressed in CHO cells co-expressing Gqi5 after 142 secs by Fluo-4AM dye based calcium flux assay; type: functional, cell-based
[11] = molecular target: T5, Metabotropic glutamate receptor 8 (Rattus norvegicus, UniProt P70579); experiment: Antagonist activity at rat mGlu8 expressed in HEK cells co-expressing Galpha15 assessed as reduction in L-AP4-induced intracellular calcium flux pretreated for 142 secs followed by glutamate addition and subsequent stimulation of L-AP4 for 40 secs by Fluo-4 AM dye based fluorescence assay; type: functional, cell-based
T5 sequence (P70579 whole entry): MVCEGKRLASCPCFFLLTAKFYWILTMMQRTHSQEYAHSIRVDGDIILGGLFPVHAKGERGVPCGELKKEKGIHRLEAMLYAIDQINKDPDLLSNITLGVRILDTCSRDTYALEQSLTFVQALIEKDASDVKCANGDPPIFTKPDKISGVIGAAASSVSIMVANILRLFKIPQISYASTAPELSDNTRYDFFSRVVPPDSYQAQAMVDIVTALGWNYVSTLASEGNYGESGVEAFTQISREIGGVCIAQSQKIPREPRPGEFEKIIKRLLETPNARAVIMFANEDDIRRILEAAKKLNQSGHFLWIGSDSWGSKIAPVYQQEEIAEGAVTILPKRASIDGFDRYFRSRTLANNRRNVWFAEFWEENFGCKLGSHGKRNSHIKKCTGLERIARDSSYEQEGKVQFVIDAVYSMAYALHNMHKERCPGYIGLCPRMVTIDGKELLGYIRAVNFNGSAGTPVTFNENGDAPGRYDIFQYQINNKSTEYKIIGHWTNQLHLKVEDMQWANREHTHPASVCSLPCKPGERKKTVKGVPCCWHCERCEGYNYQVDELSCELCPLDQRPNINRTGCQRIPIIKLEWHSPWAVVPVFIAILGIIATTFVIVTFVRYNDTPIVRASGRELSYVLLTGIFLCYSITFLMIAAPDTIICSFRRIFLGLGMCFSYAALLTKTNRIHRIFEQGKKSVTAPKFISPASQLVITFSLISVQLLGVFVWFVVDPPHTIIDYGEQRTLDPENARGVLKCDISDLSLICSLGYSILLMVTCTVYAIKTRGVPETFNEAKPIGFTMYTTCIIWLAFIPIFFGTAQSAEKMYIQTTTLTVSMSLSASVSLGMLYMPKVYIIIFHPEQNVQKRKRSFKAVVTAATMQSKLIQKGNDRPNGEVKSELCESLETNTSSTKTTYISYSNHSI

[12] = Drug level in C57/Bl6 mouse brain at 10 mg/kg, ip by LC-MS/MS analysis; type: ADME, organism-based; conditions: in vivo, read-out: Drug uptake
[13] = Brain to plasma partition coefficient, Kp of the compound in C57/Bl6 mouse at 30 mg/kg, ip measured after 0.5 hrs by LC-MS/MS analysis; type: ADME, organism-based; conditions: brain and plasma
[14] = Unbound drug level in C57/Bl6 mouse plasma at 10 mg/kg, ip by LC-MS/MS analysis; type: ADME, organism-based; conditions: in vivo
[15] = Brain to plasma partition coefficient, Kp of the compound in cannulated Sprague-Dawley rat at 0.2 to 0.25 mg/kg, iv administered as cassette dose measured after 0.25 hrs by LC-MS/MS analysis; type: ADME, organism-based; conditions: brain and plasma
[16] = Drug level in C57/Bl6 mouse plasma at 10 mg/kg, ip by LC-MS/MS analysis; type: ADME, organism-based; conditions: in vivo
[17] = Unbound brain to plasma concentration ratio in cannulated Sprague-Dawley rat at 0.2 to 0.25 mg/kg, iv administered as cassette dose measured after 0.25 hrs by LC-MS/MS analysis; type: ADME, organism-based; conditions: brain and plasma, read-out: K(p,uu,brain)
[18] = Drug level in C57/Bl6 mouse brain at 30 mg/kg, ip by LC-MS/MS analysis; type: ADME, organism-based; conditions: in vivo, read-out: Drug uptake
[19] = Brain to plasma partition coefficient, Kp of the compound in C57/Bl6 mouse at 100 mg/kg, ip measured after 0.5 hrs by LC-MS/MS analysis; type: ADME, organism-based; conditions: brain and plasma
[20] = Unbound brain to plasma concentration ratio in C57/Bl6 mouse at 30 mg/kg, ip measured after 0.5 hrs by LC-MS/MS analysis; type: ADME, organism-based; conditions: brain and plasma, read-out: K(p,uu,brain)
[21] = Brain to plasma partition coefficient, Kp of the compound in C57/Bl6 mouse at 10 mg/kg, ip measured after 0.5 hrs by LC-MS/MS analysis; type: ADME, organism-based; conditions: brain and plasma
[22] = Unbound drug level in C57/Bl6 mouse plasma assessed as unbound fraction at 100 mg/kg, ip by LC-MS/MS analysis; type: ADME, organism-based; conditions: in vivo
[23] = Volume of distribution at steady state in cannulated Sprague-Dawley rat at 0.2 to 0.25 mg/kg, iv administered as cassette dose by LC-MS/MS analysis; type: ADME, organism-based; conditions: in vivo, read-out: Vdss
[24] = Clearance in cannulated Sprague-Dawley rat at 0.2 to 0.25 mg/kg, iv administered as cassette dose by LC-MS/MS analysis; type: ADME, organism-based; conditions: in vivo
[25] = Half life in cannulated Sprague-Dawley rat at 0.2 to 0.25 mg/kg, iv administered as cassette dose by LC-MS/MS analysis; type: ADME, organism-based; conditions: in vivo
[26] = Drug level in C57/Bl6 mouse brain at 100 mg/kg, ip by LC-MS/MS analysis; type: ADME, organism-based; conditions: in vivo, read-out: Drug uptake
[27] = molecular target: T4, Metabotropic glutamate receptor 6; experiment: Agonist activity at mGlu6 receptor (unknown origin); type: functional
Mus musculus = experiment: Toxicity in C57/Bl6 mouse at 100 mg/kg, ip; type: organism-based; conditions: in vivo
[28] = Unbound drug level in C57/Bl6 mouse brain assessed as unbound fraction at 100 mg/kg, ip by LC-MS/MS analysis; type: ADME, organism-based; conditions: in vivo
[29] = molecular target: T3, Metabotropic glutamate receptor 5; experiment: Agonist activity at mGlu5 receptor (unknown origin); type: functional
[30] = molecular target: T6, Metabotropic glutamate receptor 2 (Homo sapiens, UniProt Q14416); experiment: Agonist activity at mGlu2 receptor (unknown origin); type: functional
[31] = molecular target: T7, Metabotropic glutamate receptor 1 (Homo sapiens, UniProt Q13255); experiment: Antagonist activity at mGlu1 receptor (unknown origin); type: functional
T7 sequence (Q13255 whole entry): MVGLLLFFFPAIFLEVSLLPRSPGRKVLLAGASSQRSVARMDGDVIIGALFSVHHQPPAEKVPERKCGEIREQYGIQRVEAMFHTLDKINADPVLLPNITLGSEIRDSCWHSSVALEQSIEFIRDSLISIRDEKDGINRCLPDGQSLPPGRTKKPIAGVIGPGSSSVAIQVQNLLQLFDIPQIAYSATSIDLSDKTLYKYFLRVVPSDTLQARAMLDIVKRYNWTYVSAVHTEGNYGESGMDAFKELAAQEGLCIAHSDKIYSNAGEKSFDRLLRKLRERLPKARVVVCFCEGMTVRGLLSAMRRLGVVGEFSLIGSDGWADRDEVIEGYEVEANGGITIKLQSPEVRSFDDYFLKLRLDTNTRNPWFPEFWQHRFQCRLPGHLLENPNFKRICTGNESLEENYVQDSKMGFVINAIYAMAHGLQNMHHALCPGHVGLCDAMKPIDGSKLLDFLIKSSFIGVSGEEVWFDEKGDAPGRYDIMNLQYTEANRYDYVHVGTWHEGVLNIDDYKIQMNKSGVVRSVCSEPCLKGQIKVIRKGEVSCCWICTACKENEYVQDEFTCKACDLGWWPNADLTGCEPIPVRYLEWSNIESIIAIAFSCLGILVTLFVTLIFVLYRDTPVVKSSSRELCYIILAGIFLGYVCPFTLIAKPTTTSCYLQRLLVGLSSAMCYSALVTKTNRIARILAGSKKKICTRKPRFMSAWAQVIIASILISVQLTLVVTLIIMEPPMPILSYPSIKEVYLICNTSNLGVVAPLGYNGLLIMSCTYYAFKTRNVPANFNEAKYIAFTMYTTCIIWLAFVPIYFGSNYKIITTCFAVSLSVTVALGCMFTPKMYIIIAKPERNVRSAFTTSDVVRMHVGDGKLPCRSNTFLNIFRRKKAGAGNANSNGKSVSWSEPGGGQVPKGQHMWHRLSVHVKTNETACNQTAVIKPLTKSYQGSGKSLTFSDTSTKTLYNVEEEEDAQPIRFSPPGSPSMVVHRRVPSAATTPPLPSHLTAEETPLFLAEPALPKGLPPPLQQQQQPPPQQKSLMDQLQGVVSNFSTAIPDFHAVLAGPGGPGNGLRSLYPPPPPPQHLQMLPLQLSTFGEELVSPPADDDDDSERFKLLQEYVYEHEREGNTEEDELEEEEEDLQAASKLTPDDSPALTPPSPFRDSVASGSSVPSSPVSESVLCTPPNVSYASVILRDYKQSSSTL

[32] = molecular target: T7, Metabotropic glutamate receptor 1; experiment: Agonist activity at mGlu1 receptor (unknown origin); type: functional
[33] = Protein binding in mouse plasma assessed as unbound fraction measured after 4 hrs by LC-MS/MS based equilibrium dialysis method; type: ADME, cell-free
[34] = Drug level in C57/Bl6 mouse plasma at 30 mg/kg, ip by LC-MS/MS analysis; type: ADME, organism-based; conditions: in vivo
Brain = experiment: Blockade of high-frequency stimulation-induced long-term potentiation at SC-CA1 synapses in C57BL/6J mouse brain slices at 10 uM pretreated for 10 mins followed by high-frequency stimulation measured up to 60 mins; type: functional, tissue-based
[35] = Unbound drug level in C57/Bl6 mouse plasma assessed as unbound fraction at 30 mg/kg, ip by LC-MS/MS analysis; type: ADME, organism-based; conditions: in vivo
[36] = Unbound brain to plasma concentration ratio in C57/Bl6 mouse at 100 mg/kg, ip measured after 0.5 hrs by LC-MS/MS analysis; type: ADME, organism-based; conditions: brain and plasma, read-out: K(p,uu,brain)
[37] = molecular target: T6, Metabotropic glutamate receptor 2; experiment: Antagonist activity at mGlu2 receptor (unknown origin); type: functional
[38] = molecular target: T5, Metabotropic glutamate receptor 8; experiment: Agonist activity at rat mGlu8 expressed in HEK cells co-expressing Galpha15 measured after 142 secs by Fluo-4 AM dye based calcium flux assay; type: functional, cell-based
[39] = Drug metabolism in rat hepatic S9 fraction assessed as amide hydrolysis after 60 mins in presence of NADPH/UDPGA/PAPS by LC/MS analysis; type: ADME, subcellular, Liver; conditions: s9, 1 h
[40] = Unbound brain to plasma concentration ratio in C57/Bl6 mouse at 10 mg/kg, ip measured after 0.5 hrs by LC-MS/MS analysis; type: ADME, organism-based; conditions: brain and plasma, read-out: K(p,uu,brain)
[41] = Unbound drug level in C57/Bl6 mouse brain assessed as unbound fraction at 30 mg/kg, ip by LC-MS/MS analysis; type: ADME, organism-based; conditions: in vivo
[42] = molecular target: Metabotropic glutamate receptor 7 (Rattus norvegicus, UniProt P35400); experiment: Negative allosteric modulation of rat mGlu7 expressed in HEK cells co-expressing Galpha15 assessed as reduction in L-AP4-induced intracellular calcium flux pretreated for 142 secs followed by glutamate addition and subsequent stimulation of L-AP4 for 40 secs by Fluo-4 AM dye based fluorescence assay; type: functional, cell-based
Metabotropic glutamate receptor 7, sequence (P35400 whole entry): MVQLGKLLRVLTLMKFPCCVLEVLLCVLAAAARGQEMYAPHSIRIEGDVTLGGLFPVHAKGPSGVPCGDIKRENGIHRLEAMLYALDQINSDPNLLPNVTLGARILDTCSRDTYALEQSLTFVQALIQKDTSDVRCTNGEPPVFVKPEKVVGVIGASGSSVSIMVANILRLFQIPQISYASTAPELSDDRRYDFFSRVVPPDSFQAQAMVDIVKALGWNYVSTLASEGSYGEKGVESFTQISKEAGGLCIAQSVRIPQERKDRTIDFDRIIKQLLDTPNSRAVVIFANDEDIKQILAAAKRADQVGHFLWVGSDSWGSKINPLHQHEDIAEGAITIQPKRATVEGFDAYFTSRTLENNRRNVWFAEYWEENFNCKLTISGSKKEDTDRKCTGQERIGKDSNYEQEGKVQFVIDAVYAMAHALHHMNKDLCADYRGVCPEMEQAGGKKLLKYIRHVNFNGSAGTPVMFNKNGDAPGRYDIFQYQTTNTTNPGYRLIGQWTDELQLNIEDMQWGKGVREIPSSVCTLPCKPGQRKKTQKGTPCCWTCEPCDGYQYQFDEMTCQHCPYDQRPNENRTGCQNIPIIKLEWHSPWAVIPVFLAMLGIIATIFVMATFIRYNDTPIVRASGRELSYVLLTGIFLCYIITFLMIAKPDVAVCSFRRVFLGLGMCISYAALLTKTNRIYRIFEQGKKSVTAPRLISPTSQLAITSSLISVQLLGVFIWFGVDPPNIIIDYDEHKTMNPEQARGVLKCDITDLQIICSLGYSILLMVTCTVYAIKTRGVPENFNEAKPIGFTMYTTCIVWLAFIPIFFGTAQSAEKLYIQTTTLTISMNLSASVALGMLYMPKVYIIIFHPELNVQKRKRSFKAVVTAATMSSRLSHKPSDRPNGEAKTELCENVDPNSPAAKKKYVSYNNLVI

T1 sequence (Q14832 whole entry): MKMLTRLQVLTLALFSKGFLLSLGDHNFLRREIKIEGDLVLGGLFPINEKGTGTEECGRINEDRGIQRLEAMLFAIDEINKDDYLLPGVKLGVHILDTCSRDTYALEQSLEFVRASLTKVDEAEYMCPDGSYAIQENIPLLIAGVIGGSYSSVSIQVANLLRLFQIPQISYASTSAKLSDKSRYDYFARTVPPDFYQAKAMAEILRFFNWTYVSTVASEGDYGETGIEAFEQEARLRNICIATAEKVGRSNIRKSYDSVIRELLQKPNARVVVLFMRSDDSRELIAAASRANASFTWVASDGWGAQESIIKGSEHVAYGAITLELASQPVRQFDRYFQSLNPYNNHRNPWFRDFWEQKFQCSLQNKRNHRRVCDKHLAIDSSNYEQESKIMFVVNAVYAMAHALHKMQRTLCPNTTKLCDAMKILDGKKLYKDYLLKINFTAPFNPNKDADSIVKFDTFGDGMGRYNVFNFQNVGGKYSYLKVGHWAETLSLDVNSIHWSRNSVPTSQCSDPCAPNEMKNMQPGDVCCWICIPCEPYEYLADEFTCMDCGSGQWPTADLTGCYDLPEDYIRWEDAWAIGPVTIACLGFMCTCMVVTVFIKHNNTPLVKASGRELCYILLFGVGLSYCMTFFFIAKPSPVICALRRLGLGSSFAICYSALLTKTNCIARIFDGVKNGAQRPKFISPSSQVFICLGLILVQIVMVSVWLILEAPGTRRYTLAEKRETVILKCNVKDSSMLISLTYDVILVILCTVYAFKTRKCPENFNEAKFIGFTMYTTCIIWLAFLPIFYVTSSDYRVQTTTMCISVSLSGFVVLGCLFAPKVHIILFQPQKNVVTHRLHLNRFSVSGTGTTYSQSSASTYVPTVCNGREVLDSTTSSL

COc1ccc(C(=O)Nc2cc(OC(F)(F)F)ccc2-n2cncn2)cc1OC
EC50 [1]: > 10 µM
fraction unbound at 6 h [2]: 0.034
IC50 [3]: > 10 µM
IC50 [4]: > 10 µM
Drug uptake(free) [5]: 14.3 nM
IC50 [6]: > 10 µM
bioavailability [7]: 18.9%
Fu ([8]; 4 h): 0.244
IC50 [9]: > 10 µM
EC50 [10]: > 10 µM
IC50 [11]: > 10 µM
concentration [12]: 380 nM
Kp at 0.5 h [13]: 2.36
Cp(f) [14]: 32.5 nM
Kp at 0.25 h [15]: 3.4
concentration [16]: 180 nM
Kp uu at 0.25 h [17]: 0.48
concentration [18]: 952 nM
Kp at 0.5 h [19]: 2
Kp uu at 0.5 h [20]: 0.51
Kp at 0.5 h [21]: 2.01
Cp(f) [22]: 137 nM
Vd [23]: 6.2 L/kg
clearance [24]: 64.2 mL/min/kg
half-life [25]: 1.73 h
concentration [26]: 1550 nM
EC50 [27]: > 10 µM
Activity (Mus musculus): Non-Toxic
Drug uptake(free) [28]: 59 nM
EC50 [29]: > 10 µM
EC50 [30]: > 10 µM
IC50 [31]: > 10 µM
EC50 [32]: > 10 µM
fraction unbound at 4 h [33]: 0.178
concentration [34]: 402 nM
Activity (Brain): Active
Cp(f) [35]: 71.5 nM
Kp uu at 0.5 h [36]: 0.43
IC50 [37]: > 10 µM
EC50 [38]: > 10 µM
Drug metabolism [39]: Metabolite_Detected
Kp uu at 0.5 h [40]: 0.44
Drug uptake(free) [41]: 36.2 nM

COc1cc(C(=O)Nc2cc(OC(F)(F)F)ccc2-n2cncn2)ccc1OC1CC1
fraction unbound at 6 h [2]: 0.013
fraction unbound at 4 h [8]: 0.052
Kp at 0.25 h [15]: 5.8
Kp uu at 0.25 h [17]: 1.5
IC50 [42]: 0.71 µM
fraction unbound at 4 h [33]: 0.039

COc1cc(C(=O)Nc2cc(OC(F)(F)F)ccc2-n2cncn2)ccc1OC1CCCC1
IC50 [42]: 1.4 µM

CCc1nc2c(o1)CC(c1ccc(C)cc1C)CC2=O (stereo not given)
Activity (Mus musculus): Non-Toxic
IC50 [42]: 0.676 µM

COc1ccc(C(=O)Nc2cc(Cl)ccc2-n2cncn2)cc1OC
IC50 [3]: > 30 µM
IC50 [11]: > 30 µM
IC50 [42]: 5.8 µM

COc1cc(C(=O)Nc2cc(OC(F)(F)F)ccc2-n2cncn2)ccc1OC(C)C
fraction unbound at 6 h [2]: 0.013
fraction unbound at 4 h [8]: 0.065
Kp at 0.25 h [15]: 4.4
Kp uu at 0.25 h [17]: 0.89
fraction unbound at 4 h [33]: 0.063

CCCOc1ccc(C(=O)Nc2cc(OC(F)(F)F)ccc2-n2cncn2)cc1OC
fraction unbound at 6 h [2]: 0.009
fraction unbound at 4 h [8]: 0.017
Kp at 0.25 h [15]: 1.9
Kp uu at 0.25 h [17]: 1
fraction unbound at 4 h [33]: 0.019

CCOc1ccc(C(=O)Nc2cc(OC(F)(F)F)ccc2-n2cncn2)cc1OC
fraction unbound at 6 h [2]: 0.017
fraction unbound at 4 h [8]: 0.072
Kp at 0.25 h [15]: 3.5
Kp uu at 0.25 h [17]: 0.83
fraction unbound at 4 h [33]: 0.086
